Consider 39 molecules from US8569493B2 (Santen Pharmaceutical Co., Ltd., priority 2007, dated 2013).

As a reminder, the inhibition is how much of the control response was suppressed.

This assay addresses T1, Recombinant human GR (Homo sapiens, UniProt P04150).
T1 construct: purchased Invitrogen P2816
T1 sequence (P04150 1-777): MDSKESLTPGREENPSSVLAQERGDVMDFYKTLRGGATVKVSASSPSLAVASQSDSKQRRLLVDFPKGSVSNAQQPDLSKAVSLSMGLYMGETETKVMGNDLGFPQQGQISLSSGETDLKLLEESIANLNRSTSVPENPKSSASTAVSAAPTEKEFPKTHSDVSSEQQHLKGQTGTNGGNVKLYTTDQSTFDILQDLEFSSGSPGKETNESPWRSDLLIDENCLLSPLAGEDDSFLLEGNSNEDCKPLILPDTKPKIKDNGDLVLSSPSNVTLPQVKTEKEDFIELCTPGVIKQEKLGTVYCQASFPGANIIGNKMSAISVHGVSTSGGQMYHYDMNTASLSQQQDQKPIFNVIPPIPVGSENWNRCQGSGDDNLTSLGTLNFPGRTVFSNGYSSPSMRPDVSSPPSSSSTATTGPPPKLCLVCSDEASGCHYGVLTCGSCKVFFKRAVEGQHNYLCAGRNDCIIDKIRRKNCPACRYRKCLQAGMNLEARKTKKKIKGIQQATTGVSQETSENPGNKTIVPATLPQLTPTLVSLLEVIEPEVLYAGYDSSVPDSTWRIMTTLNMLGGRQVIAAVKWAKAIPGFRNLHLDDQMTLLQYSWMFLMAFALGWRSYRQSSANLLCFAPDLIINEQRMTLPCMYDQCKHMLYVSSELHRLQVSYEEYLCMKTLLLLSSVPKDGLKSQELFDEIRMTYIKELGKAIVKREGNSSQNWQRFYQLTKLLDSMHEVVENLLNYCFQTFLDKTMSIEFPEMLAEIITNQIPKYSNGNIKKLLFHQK
Put plainly: GR competitor assay by fluorescence polarization (binding activity to glucocorticoid receptor). To be noted: 20 μM test compound solution, 10 μL per well plus 5 μL 4×GS1 and 5 μL 4×GR; 2 to 4 hours at room temperature; ratio of 100% or more is indicated by 100%. As to the method:
1. Evaluation Test for Binding Activity to Glucocorticoid Receptor (hereinafter referred to as “GR”)
In order to evaluate a binding activity to GR, a receptor competitor assay was carried out by a fluorescence polarization method. In the assay, a GR competitor assay kit (manufactured by Invitrogen, cat No. P2816) was used, and a procedure was carried out according to the protocol attached to the kit. Hereinafter, the specific method will be described.
(Preparation of Reagents)
GR screening buffer: A buffer containing 10 mM potassium phosphate (pH 7.4), 20 mM sodium molybdate (Na2MoO4), 0.1 mM ethylene diamine tetraacetic acid (EDTA), 5 mM dithiothreitol (DTT), 0.1 mM stabilizing peptide and 2% dimethylsulfoxide was prepared.
4×GS1 solution: Fluormone™ GS1, which is a fluorescent glucocorticoid ligand, was diluted with GR screening buffer, whereby a 4 nM solution was prepared.
4×GR solution: Recombinant human GR was diluted with GR screening buffer, whereby a 16 nM solution was prepared.
(Preparation of Test Compound Solution)
After a test compound was dissolved in dimethylsulfoxide, it was diluted with GR screening buffer, whereby a 20 μM test compound solution was prepared.
(Test Method and Measurement Method)
1) The test compound solution was added in an amount of 10 μL into each well of a 384-well plate, and then, 4×GS1 solution and 4×GR solution were added in an amount of 5 μL into each well, respectively.
2) The plate was incubated in a dark place at room temperature for 2 to 4 hours.
3) By using a multimode plate reader, Analyst™ HT (manufactured by LJL Biosystems), fluorescence polarization of each well was measured. As the blank, a well containing GR screening buffer in place of the test compound and 4×GS1 solution was used.
4) The same procedure as that in the above 1) to 3) was carried out except that GR screening buffer was used in place of the test compound solution, and the obtained result was taken as the negative control.
5) The same procedure as that in the above 1) to 3) was carried out except that 2 mM dexamethasone was used in place of the test compound solution, and the obtained result was taken as the positive control.
(Calculation Equation of GR Binding Ratio)
A GR binding ratio (%) was calculated from the following equation. GR binding ratio(%)=100×[1−(fluorescence polarization of test compound solution−fluorescence polarization of positive control solution)/(fluorescence polarization of negative control solution−fluorescence polarization of positive control solution)] (Test Results and Discussion)
Background: Polarisation of emitted light reports the rotation of a fluorescent probe.
`COc1cc(OS(C)(=O)=O)ccc1-c1ccc2c(c1COc1cc(F)ccc1C)N(C)C(=O)C(C)(C)N2` [Compound 1-1, 8-(5-Fluoro-2-methylphenoxymethyl)-7-(2-methoxy-4-methylsulfonyloxyphenyl)-1,3,3-trimethyl-3,4-dihydro-1H-quinoxalin-2-one]: the inhibition at 10 µM is 91%. For the molecule `COc1cc(OS(=O)(=O)c2ccccc2)ccc1-c1ccc2c(c1COc1cc(F)ccc1C)N(C)C(=O)C(C)(C)N2` [Compound 1-2], the inhibition at 10 µM is 85%. As for `COc1cc(OS(=O)(=O)C(F)(F)F)ccc1-c1ccc2c(c1COc1cc(F)ccc1C)N(C)C(=O)C(C)(C)N2` [Compound 1-3], the figure is 99%; as for `CCCS(=O)(=O)Oc1ccc(-c2ccc3c(c2COc2cc(F)ccc2C)N(C)C(=O)C(C)(C)N3)c(OC)c1` [Compound 1-4], 99%. On to `COc1cc(OS(=O)(=O)c2ccco2)ccc1-c1ccc2c(c1COc1cc(F)ccc1C)N(C)C(=O)C(C)(C)N2` [Compound 1-5], for which the inhibition at 10 µM is 95%. As for `COc1cc(OS(C)(=O)=O)ccc1-c1ccc2c(c1COC(=O)c1ccc(C)s1)N(C)C(=O)C(C)(C)N2` [Compound 1-6], the figure is 100%; as for `COc1cc(OS(=O)(=O)c2ccccc2)ccc1-c1ccc2c(c1COC(=O)c1ccc(C)s1)N(C)C(=O)C(C)(C)N2` [Compound 1-7], 86%; as for `COc1cc(OS(=O)(=O)c2ccccc2Cl)ccc1-c1ccc2c(c1COc1cc(F)ccc1C)N(C)C(=O)C(C)(C)N2` [Compound 1-8], 85%. As for `COc1cc(OS(=O)(=O)Cc2ccccc2)ccc1-c1ccc2c(c1COc1cc(F)ccc1C)N(C)C(=O)C(C)(C)N2` [Compound 1-9], the figure is 100%. `COC(=O)CCS(=O)(=O)Oc1ccc(-c2ccc3c(c2COc2cc(F)ccc2C)N(C)C(=O)C(C)(C)N3)c(OC)c1` [Compound 1-10]: the inhibition at 10 µM stood at 100%.

For the molecule `COc1cc(OS(=O)(=O)c2ccccc2C)ccc1-c1ccc2c(c1COc1cc(F)ccc1C)N(C)C(=O)C(C)(C)N2` [Compound 1-11], the inhibition at 10 µM came to 83%. For the molecule `CCCCS(=O)(=O)Oc1ccc(-c2ccc3c(c2COc2cc(F)ccc2C)N(C)C(=O)C(C)(C)N3)c(OC)c1` [Compound 1-12], the inhibition at 10 µM turned out to be 100%. As for `CCS(=O)(=O)Oc1ccc(-c2ccc3c(c2COc2cc(F)ccc2C)N(C)C(=O)C(C)(C)N3)c(OC)c1` [Compound 1-13], the figure is 100%. Take `COc1cc(OS(=O)(=O)C(C)C)ccc1-c1ccc2c(c1COc1cc(F)ccc1C)N(C)C(=O)C(C)(C)N2` [Compound 1-14]: the inhibition at 10 µM was 100%. As for `COc1cccc(S(=O)(=O)Oc2ccc(-c3ccc4c(c3COc3cc(F)ccc3C)N(C)C(=O)C(C)(C)N4)c(OC)c2)c1` [Compound 1-15], the figure is 82%.

`COc1cc(OS(=O)(=O)c2cccc(Cl)c2)ccc1-c1ccc2c(c1COc1cc(F)ccc1C)N(C)C(=O)C(C)(C)N2` [Compound 1-16]: the inhibition at 10 µM is 68%. With `COc1cc(OS(=O)(=O)c2ccc(Cl)cc2)ccc1-c1ccc2c(c1COc1cc(F)ccc1C)N(C)C(=O)C(C)(C)N2` [Compound 1-17], the inhibition at 10 µM turned out to be 65%. As for `COc1cc(OS(=O)(=O)Cc2cccc(Cl)c2)ccc1-c1ccc2c(c1COc1cc(F)ccc1C)N(C)C(=O)C(C)(C)N2` [Compound 1-18], the figure is 88%. As for `COc1cc(OS(=O)(=O)Cc2ccc(C)cc2)ccc1-c1ccc2c(c1COc1cc(F)ccc1C)N(C)C(=O)C(C)(C)N2` [Compound 1-19], the figure is 91%. As for `COc1cc(OS(=O)(=O)Cc2ccc(Cl)cc2)ccc1-c1ccc2c(c1COc1cc(F)ccc1C)N(C)C(=O)C(C)(C)N2` [Compound 1-20], the figure is 87%; as for `COc1cc(OS(=O)(=O)CC(C)C)ccc1-c1ccc2c(c1COc1cc(F)ccc1C)N(C)C(=O)C(C)(C)N2` [Compound 1-21], 92%; as for `COc1cc(OS(=O)(=O)CCC(F)(F)F)ccc1-c1ccc2c(c1COc1cc(F)ccc1C)N(C)C(=O)C(C)(C)N2` [Compound 1-22], 91%.

Consider `COc1cc(OS(=O)(=O)C2CC2)ccc1-c1ccc2c(c1COc1cc(F)ccc1C)N(C)C(=O)C(C)(C)N2` [Compound 1-23], for which the inhibition at 10 µM amounted to 94%. As for `COc1cc(NS(C)(=O)=O)ccc1-c1ccc2c(c1COc1cc(F)ccc1C)N(C)C(=O)C(C)(C)N2` [Compound 1-25], the figure is 92%.

On to `COc1cc(OS(=O)(=O)c2ccccc2F)ccc1-c1ccc2c(c1COc1cc(F)ccc1C)N(C)C(=O)C(C)(C)N2` [Compound 1-26], for which the inhibition at 10 µM came out at 95%. As for `COc1cc(OS(=O)(=O)Cc2ccccc2Cl)ccc1-c1ccc2c(c1COc1cc(F)ccc1C)N(C)C(=O)C(C)(C)N2` [Compound 1-27], the figure is 99%; as for `COc1cc(OS(=O)(=O)Cc2ccccc2C)ccc1-c1ccc2c(c1COc1cc(F)ccc1C)N(C)C(=O)C(C)(C)N2` [Compound 1-28], 91%.

As for `COc1cc(OS(=O)(=O)C2CCCC2)ccc1-c1ccc2c(c1COc1cc(F)ccc1C)N(C)C(=O)C(C)(C)N2` [Compound 1-29], the inhibition at 10 µM worked out at 95%. As for `COc1cc(OS(=O)(=O)C2CCCCC2)ccc1-c1ccc2c(c1COc1cc(F)ccc1C)N(C)C(=O)C(C)(C)N2` [Compound 1-30], the figure is 92%; as for `COc1cc(OS(=O)(=O)Cc2cccc(C)c2)ccc1-c1ccc2c(c1COc1cc(F)ccc1C)N(C)C(=O)C(C)(C)N2` [Compound 1-31], 90%; as for `COc1cc(OS(=O)(=O)C2CC2)ccc1-c1ccc2c(c1COC(=O)c1ccc(C)s1)N(C)C(=O)C(C)(C)N2` [Compound 1-32], 96%. As for `COc1cc(OS(=O)(=O)CCC(F)(F)F)ccc1-c1ccc2c(c1COC(=O)c1ccc(C)s1)N(C)C(=O)C(C)(C)N2` [Compound 1-33], the figure is 95%; as for `COc1cc(OS(=O)(=O)CC(C)C)ccc1-c1ccc2c(c1COC(=O)c1ccc(C)s1)N(C)C(=O)C(C)(C)N2` [Compound 1-34], 100%. As for `CCCS(=O)(=O)Oc1ccc(-c2ccc3c(c2COC(=O)c2ccc(C)s2)N(C)C(=O)C(C)(C)N3)c(OC)c1` [Compound 1-35], the figure is 95%; as for `COc1cc(OS(=O)(=O)C(C)C)ccc1-c1ccc2c(c1COC(=O)c1ccc(C)s1)N(C)C(=O)C(C)(C)N2` [Compound 1-36], 99%.

Regarding `COc1cc(OS(=O)(=O)C2CCCC2)ccc1-c1ccc2c(c1COC(=O)c1ccc(C)s1)N(C)C(=O)C(C)(C)N2` [Compound 1-37], the inhibition at 10 µM amounted to 94%. As for `COc1ccc([N+](=O)[O-])cc1OCc1c(-c2ccc(OS(C)(=O)=O)cc2OC)ccc2c1N(C)C(=O)C(C)(C)N2` [Compound 1-38], the figure is 100%; as for `COc1ccc([N+](=O)[O-])cc1OCc1c(-c2ccc(OS(=O)(=O)CCC(F)(F)F)cc2OC)ccc2c1N(C)C(=O)C(C)(C)N2` [Compound 1-39], 100%.

With `COc1ccc([N+](=O)[O-])cc1OCc1c(-c2ccc(OS(=O)(=O)CC(C)C)cc2OC)ccc2c1N(C)C(=O)C(C)(C)N2` [Compound 1-40], the inhibition at 10 µM came to 100%.
